Assay results from patent publication US20090047221A1 (NIPRI LIMITED, priority 2004, published 2009).
Where two headings read alike, the source gives them in different places.

Key:
Assay type in all cases: cell-based
[1] = tested on: breast cancer (MDA-MB-468 and MCF-7 cell lines) and melanoma cell lines (MalMe3, SkMe128); test: Cell cycle analysis by flow cytometry (propidium iodide); apoptosis as cells in sub G0/G1 (pre G0) peak; details: following treatment with IC70 concentration of compound
Protocol: Assessment of cell cycle analysis was performed using propidium iodide staining of cells and subsequent analysis on a Beckton Dickinson flow cytometer. […] The following day the medium was removed and replaced with 5 ml medium per flask containing the appropriate drug concentrations to be tested. 40 mg/ml stock drug solutions in DMSO were stores at −20° C. and on the day off drug treatment working solutions of 4 mg/ml were prepared in medium from which the final drug dilutions were prepared. Cells were maintained in an incubator (37° C., 5% CO2) for up to 96 h post treatment. After 24, 48, 72 or 96 h time points the medium from each flask was collected, stored on ice, and the remaining cells in the flasks were trypsinised by aiding 1 ml trypsin-EDTA solution to each flask. Cells were replaced into the incubator for 10 min to allow them to detach from the plastic plate. The cells in each flask were collected by adding the appropriate medium removed from each flask back to the corresponding flask and then placing medium containing both the attached and floating cells into a 15 ml tube. Cells were centrifuged at 4° C. for 5 min at 1500 rpm and the supernatant removed from each tube. The remaining cells were washed twice in ice cold PBS and then fixed in ice cold methanol overnight at −20° C. On the day of analysis of cells each tube was centrifuged at 4° C. for 5 min at 1500 rpm and the methanol removed and the cells washed twice in ice cold PBS. 20 μl propidium iodide solution (1 mg/ml) and 20 μl RNase A (10 mg/ml solution) were added to 1 ml PBS per tube and the cells were incubated for 30 min at 37° C. Cells were analysed on the flow cytometer and cell cycle changes were assessed.

MCF-7 = test: MTT assay (anti-proliferative activity); details: read-out: IC 50 MCF-7
Protocol: (§1) The MTT assay was used initially to determine the anti-proliferative activity of the test compounds. In the MTT assay a yellow thiazolyl blue tetrazolium bromide salt (MTT) is reduced, in metabolically active cells, to form insoluble purple formazan crystals which are solubilised by the addition of dimethyl sulphoxide (DMSO).
(§2) Wells containing medium only were used as blanks. Following the attachment period, cells were treated with appropriate drug concentrations (20 μl added per well). 40 mg/ml stock drug solutions, in DMSO, were stored at −20° C. and on the day of drug treatment working solutions of 4 mg/ml were prepared in medium which was further diluted to achieve final drug dilution volumes of 20 μl. Initial screening was determined over a concentration range of 1-200 μg/ml. […] Cells were exposed to drug for 96 h continual exposure (37° C., 5% CO2). Following the 96 h incubation, 50 μl MTT solution (1 g MTT/500 ml PBS) was added per well and the plates were further incubated for 4 h (37° C., 5% CO2). After incubation the MTT and medium was removed from the wells and 100 μl DMSO added per well. Plates were agitated on an orbital mixer platform (Stuart Scientific) for 10 minutes. Absorbance was measured at 570 nm on a Biotrak II (Amersham Bioscience) plate reader. IC50 values were calculated comparing control and drug treated cells.

MDA-MB-468 = test: MTT assay (anti-proliferative activity); details: read-out: IC 50 MDA-MB-468
Protocol: as §1, §2

SkMel28 = test: MTT assay (anti-proliferative activity); details: read-out: IC 50 SkMel28
Protocol: as §1, §2

MalMe3M = test: MTT assay (anti-proliferative activity); details: 96 h continual exposure, read-out: IC 50 MalMe3M
Protocol: as §1, §2

[2] = Homo sapiens, MCF7, 96 h continual exposure
[3] = Homo sapiens, MDA-MB-468, 96 h continual exposure
[4] = Homo sapiens, SK-MEL-28, 96 h continual exposure

SMILES	% Cells in Pre G0 phase of Cell Cycle [1]	IC50 (MCF-7; 96 h continual exposure)	IC50 (MDA-MB-468; 96 h continual exposure)	IC50 (SkMel28; 96 h continual exposure)	IC50 (MalMe3M)	IC50 (MCF-7; [2])	IC50 (MDA-MB-468; [3])	IC50 (SkMel28; [4])	IC50 (MalMe3M; Homo sapiens, Malme-3M)
CC1Cc2ccc(C(=O)NC(Cc3ccccc3)C(=O)OC(C)(C)C)c(O)c2C(=O)O1 (mixture of isomers) [ALM-53, L-Phenyl Alanine Tert-Butyl Ester Amide]	8.9%	9.4 µM	2.3 µM	70.5 µM	11.7 µM	–	–	–	–
CCCCCCCC/C=C\CCCCCCCCNC(=O)c1ccc2c(c1O)C(=O)OC(C)C2 (racemic) [ALM-52, Oleyl Amide]	19.8%	21.2 µM	12.7 µM	244 µM	52.9 µM	–	–	–	–
CC1Cc2ccc(F)c(O)c2C(=O)O1 (racemic) [ALM-22, Racemic Ortho-Fluoromellein]	16.5%	–	–	–	–	173 µM	61.2 µM	96.8 µM	96.8 µM
CC1Cc2ccc(I)c(O)c2C(=O)O1 (racemic) [ALM-25, Racemic Ortho-Iodomellein]	37.0%	–	–	–	–	72.3 µM	72.3 µM	78.9 µM	75.6 µM
CC(C)(C)OC(=O)[C@H](Cc1ccccc1)NC(=O)c1ccc2c(c1O)C(=O)OCC2 [ALM-69, L-Phenyl Alanine Tert-Butyl Ester Amide of Compound ALM-68]	14.4%	18.2 µM	14.6 µM	72.9 µM	21.9 µM	–	–	–	–
CC/C=C\C/C=C\C/C=C\CCCCCCCC(=O)Oc1cccc2c1C(=O)OC(C)C2 (racemic) [ALM-19, Racemic Mellein α-Linolenyl Ester]	–	> 455 µM	> 455 µM	> 455 µM	> 455 µM	–	–	–	–
O=C(N[C@@H](Cc1ccccc1)C(=O)O)c1ccc2c(c1O)C(=O)OCC2 [ALM-70, L-Phenyl Alanine Amide of Compound ALM-68]	32.7%	8.4 µM	1.4 µM	42.2 µM	18.3 µM	–	–	–	–
CCCCC/C=C\C/C=C\C/C=C\CCCCC(=O)Oc1c(OC)c(OC)cc2c1C(=O)OC(C)C2 (racemic) [ALM-5, Racemic Kigelin γ-Linolenyl Ester]	–	20 µM	50.1 µM	> 401 µM	150 µM	–	–	–	–
C[C@@H]1Cc2cccc(O)c2C(=O)O1 [ALM-11, (3R)-mellein]	–	–	–	–	–	961 µM	428 µM	961 µM	> 960 µM
CC1Cc2ccc(C(=O)n3ccnc3)c(O)c2C(=O)O1 (racemic) [ALM-46, CDI derivative]	–	> 734 µM	73.4 µM	> 734 µM	> 734 µM	–	–	–	–
COc1cc2c(c(O)c1OC)C(=O)OC(C)C2 (racemic) [ALM-1, Racemic (±)—Kigelin]	–	–	–	–	–	630 µM	306 µM	718 µM	714 µM
CC1Cc2ccc(C(=O)Oc3ccccc3)c(O)c2C(=O)O1 (racemic) [ALM-37, Phenyl Ester]	–	285 µM	181 µM	332 µM	308 µM	–	–	–	–
COc1cccc2c1C(=O)OC(C)C2 (racemic) [ALM-12, Racemic Mellein Methyl Ether]	–	–	–	–	–	> 1040 µM	583 µM	> 1040 µM	> 1040 µM
CCCCCCCCCCCCNC(=O)c1ccc2c(c1O)C(=O)OC(C)C2 (racemic) [ALM-51, Dodecyl Amide]	20.6%	12.8 µM	10.3 µM	33.4 µM	25.7 µM	–	–	–	–
CC1Cc2ccc3c(c2C(=O)O1)OC(C)(C)OC3=O (stereo not drawn) [ALM-75, Acetonide Compound]	–	–	–	–	–	> 762 µM	> 762 µM	> 762 µM	> 762 µM
COc1cc(O)c2c(c1)CC(C)OC2=O (racemic) [ALM-8, 8-Hydroxy-6-methoxy-3-methylisochroman-1-one]	–	–	–	–	–	428 µM	428 µM	725 µM	663 µM
CCCCCCCC/C=C\CCCCCCCCOC(=O)c1ccc2c(c1O)C(=O)OC(C)C2 (racemic) [ALM-42, Oleyl Ester]	–	> 423 µM	317 µM	> 423 µM	> 423 µM	–	–	–	–
CC(C)(C)OC(=O)[C@H](Cc1ccccc1)NC(=O)c1ccc2c(c1O)C(=O)OC(C)(C)C2 [ALM-73, L-Phenyl Alanine Tert-Butyl Ester Amide of Compound ALM-71]	25.3%	14.8 µM	9.1 µM	13.7 µM	9.1 µM	–	–	–	–
CC1Cc2ccc(C(=O)Nc3ccccc3)c(O)c2C(=O)O1 (racemic) [ALM-45, Aniline Amide]	6.4%	26.9 µM	10.1 µM	172 µM	33.6 µM	–	–	–	–
CC1Cc2ccc(C(=O)N3CCCC3)c(O)c2C(=O)O1 (racemic) [ALM-47, Pyrrolidine Amide]	–	> 726 µM	490 µM	> 726 µM	> 726 µM	–	–	–	–
COc1ccc(I)c2c1C(=O)OC(C)C2 (racemic) [ALM-28]	–	–	–	–	–	594 µM	211 µM	283 µM	484 µM
CCCCC/C=C\C/C=C\CCCCCCCC(=O)Oc1cccc2c1C(=O)OC(C)C2 (racemic) [ALM-18, Racemic Mellein Linoleyl Ester]	–	> 453 µM	> 453 µM	> 453 µM	> 453 µM	–	–	–	–
COc1cccc2c1C(=O)O[C@@H](C)C2 [ALM-13, (3S)-methoxy mellein]	–	–	–	–	–	> 1040 µM	1040 µM	> 1040 µM	822 µM
CC1Cc2c(I)cc(I)c(O)c2C(=O)O1 (racemic) [ALM-27, Racemic 2,4-di-iodomellein]	–	–	–	–	–	116 µM	48.8 µM	76.8 µM	109 µM
